Structures are written as SMILES. Read-outs that look alike come from different tables or passages of the source.

Holding throughout (assay type): in vivo
The subject of test [1] is Phytophthora infestans. Kind of test: whole plant or invertebrate. The conditions noted are these: in Solanum lycopersicum, 96 h, read-out: Determination of control effect (preventive value).
The test system of test [2] is Pseudoperonospora cubensis. Kind of test: Test of examining control effect on Pseudoperonospora cubensis (potted cucumber plants). The note with it: 96 h, 10% wettable powder adjusted to 125 ppm, 15 ml/pot sprayed on potted cucumber plants one day before spray inoculation, assessed after 1 day wet chamber and 3 days greenhouse, read-out: Determination of control effect (preventive value) on Pseudoperonospora cubensis. The protocol:
(§1) Calculation of Preventive Value: Preventive value={(untreated lesion area rate−treated lesion area rate)/untreated lesion area rate}×100
(§2) Using the thus calculated preventive value, the control effect of each compound was determined in accordance with the following standards.
(§3) High control effect: 100%≧preventive value≧60%
(§4) Low control effect: 60%>preventive value≧0%
Using a spray gun, an agent solution prepared by adjusting a 10% wettable powder of each sample compound to 125 ppm (hereinafter referred to as a “sample agent solution”) was sprayed to potted cucumber plants (variety: Sagamihanjiro, 2.5 leave stage) in a concentration of 15 ml/pot. One day after the spraying, a conidial suspension of Pseudoperonospora cubensis (conidial concentration: 1.0×10^4 cells/ml) was applied to the plants by spray inoculation. After completion of the inoculation, the plants were left at 21° C. under wet chamber conditions for 1 day, and were then left in a greenhouse for 3 days, so that they were fully infected with the aforementioned disease. Thereafter, the disease level on each leaf was compared with that on an untreated leaf, and the control effect of each compound was determined in the same manner as in Example 3(1).

For test [3], the system named is Sphaerotheca fuliginea. Kind of test: Test of examining control effect on Sphaerotheca fuliginea (potted cucumber plants). The note with it: Podosphaera fuliginea, 336 h, 10% wettable powder adjusted to 125 ppm, 15 ml/pot sprayed on potted cucumber plants one day before spray inoculation, assessed after 14 days in greenhouse, read-out: Determination of control effect (preventive value) on Sphaerotheca fuliginea. The protocol: as §1, §2, §3, §4
Using a spray gun, an agent solution prepared by adjusting a 10% wettable powder of each sample compound to 125 ppm (hereinafter referred to as a “sample agent solution”) was sprayed to potted cucumber plants (variety: Sagamihanjiro, 2nd leave stage) in a concentration of 15 ml/pot. One day after the spraying, a conidial suspension of Sphaerotheca fuliginea (conidial concentration: 1.0×10^5 cells/ml) was applied to the plants by spray inoculation. The plants were left in a greenhouse for 14 days, so that they were fully infected with the aforementioned disease. Thereafter, the disease level on each leaf was compared with that on an untreated leaf, and the control effect of each compound was determined in the same manner as in Example 3(1).

Take `CC(CC#Cc1ccccc1S(C)(=O)=O)Nc1ncnc2ccccc12` (centres unmarked) [compound 290]: the pest or weed control at 125 ppm in test [1] was 60 to 100%. In addition, the pest or weed control at 125 µg/mL in test [2] and in test [3] was 60 to 100% in each case.

As to `CNC(=O)C(CC#Cc1ccccc1)Nc1ncnc2ccccc12` (centres unmarked) [compound 305], the pest or weed control at 125 ppm in test [1] was in the range of 0 to 60%. For the same compound, the pest or weed control at 125 µg/mL fell in the range of 60 to 100% in test [2] (in Cucumis sativus) and 0 to 60% in test [3] (in Cucumis sativus).

Take `COCc1ccccc1C#CCCNc1ncnc2ccc([N+](=O)[O-])cc12` [compound 331]: in test [1], the pest or weed control at 125 ppm lay within 0 to 60%. For the same compound, the pest or weed control at 125 µg/mL was in the range of 60 to 100% in test [2] and 0 to 60% in test [3].

With `CC(C)Oc1ccccc1C#CCCNc1ncnc2ccccc12` [compound 119], the pest or weed control at 125 ppm in test [1] was in the range of 60 to 100%. For the same compound, the pest or weed control at 125 µg/mL in test [2] and in test [3] was 60 to 100% throughout.

`Nc1c(Cl)ncnc1NCCC#Cc1ccccc1C(F)(F)F` [compound 368]: the pest or weed control at 125 ppm in test [1] fell in the range of 0 to 60%. The pest or weed control at 125 µg/mL in test [2] and in test [3] was 60 to 100% each time.

Consider `FC(F)(F)c1ccc(C#CCCNc2ncnc3ccccc23)c(Cl)c1` [compound 182], for which the pest or weed control at 125 ppm in test [1] is 0 to 60%. Moreover, the pest or weed control at 125 µg/mL in test [2] and in test [3] was 60 to 100% in each case.

Take `Fc1ccc(C#CCCNc2ncnc3ccccc23)cn1` [compound 194]: the pest or weed control at 125 ppm in test [1] is 0 to 60%. Further, the pest or weed control at 125 µg/mL in test [2] and in test [3] was 60 to 100% each time.

As to `C(#Cc1csc(Cc2ccccc2)n1)CCNc1ncnc2sccc12` [compound 75, 4-[4-(2-Benzylthiazol-4-yl)-3-butynylamino]thieno[2,3-d]pyrimidine], the pest or weed control at 125 ppm in test [1] lay in the range of 60 to 100%. Besides, the pest or weed control at 125 µg/mL in test [2] and in test [3] was 60 to 100% each time.

As for `COCc1ccccc1C#CCCNc1ncnc2ccc(-c3ccc(F)cc3)cc12` [compound 336], the pest or weed control at 125 ppm in test [1] fell in the range of 0 to 60%. The pest or weed control at 125 µg/mL in test [2] lay in the range of 60 to 100%; in test [3], 0 to 60%.

For `CC(C)c1ccccc1C#CCCNc1ncnc2ccccc12` [compound 104], in test [1], the pest or weed control at 125 ppm lay in the range of 60 to 100%. In addition, the pest or weed control at 125 µg/mL in test [2] and in test [3] was 60 to 100% each time.

Take `OCc1ccccc1C#CCCNc1ncnc2ccccc12` [compound 130]: the pest or weed control at 125 ppm in test [1] was in the range of 60 to 100%. Moreover, the pest or weed control at 125 µg/mL in test [2] and in test [3] was 60 to 100% in each case.

Take `COCc1ccccc1C#CCCNc1ncnc2ccccc12` [compound 133]: the pest or weed control at 125 ppm in test [1] was in the range of 60 to 100%. Also, the pest or weed control at 125 µg/mL in test [2] and in test [3] was 60 to 100% throughout.

For the compound `Ic1ccc(C#CCCNc2ncnc3ccccc23)cc1` [compound 98], the pest or weed control at 125 ppm in test [1] is 0 to 60%. Besides, the pest or weed control at 125 µg/mL in test [2] and in test [3] was 60 to 100% throughout.

As to `COCc1ccccc1C#CCCNc1ncnc2ccc(C)cc12` [compound 326], in test [1], the pest or weed control at 125 ppm fell in the range of 0 to 60%. Also, the pest or weed control at 125 µg/mL in test [2] and in test [3] was 60 to 100% throughout.

For `COCc1ccc(Cl)cc1C#CCCNc1ncnc2ccccc12` [compound 143], the pest or weed control at 125 ppm in test [1] was in the range of 60 to 100%. In addition, the pest or weed control at 125 µg/mL in test [2] and in test [3] was 60 to 100% each time.

In the case of `FC(F)(F)c1ccc(C#CCCNc2ncnc3ccccc23)cc1Cl` [compound 177], the pest or weed control at 125 ppm in test [1] was 60 to 100%. The pest or weed control at 125 µg/mL in test [2] and in test [3] was 60 to 100% throughout.

Turning to `COCc1ccccc1C#CCCNc1ncnc2c(Cl)cccc12` [compound 311], the pest or weed control at 125 ppm in test [1] was 60 to 100%. Also, the pest or weed control at 125 µg/mL in test [2] and in test [3] was 60 to 100% throughout.

Take `COCc1cc(C)ccc1C#CCCNc1ncnc2ccccc12` [compound 145]: the pest or weed control at 125 ppm in test [1] was in the range of 60 to 100%. Besides, the pest or weed control at 125 µg/mL in test [2] and in test [3] was 60 to 100% each time.

For `C(#Cc1ccc2ccccc2n1)CCNc1ncnc2ccccc12` [compound 188], the pest or weed control at 125 ppm in test [1] was 0 to 60%. The pest or weed control at 125 µg/mL in test [2] lay in the range of 60 to 100%; in test [3], 0 to 60%.

Regarding `C(#Cc1ccsc1)CCNc1ncnc2ccccc12` [compound 205], the pest or weed control at 125 ppm in test [1] was in the range of 60 to 100%. For the same compound, the pest or weed control at 125 µg/mL in test [2] and in test [3] was 60 to 100% each time.

On to `CC(=O)Nc1ccccc1C#CCCNc1ncnc2ccccc12` [compound 160], for which, in test [1], the pest or weed control at 125 ppm lay within 0 to 60%. In test [2], the pest or weed control at 125 µg/mL lay in the range of 0 to 60%.

In the case of `Cc1ccc(C#CCC(C)Nc2ncnc3sccc23)c(Cl)c1` (centres unmarked) [compound 255], in test [1], the pest or weed control at 125 ppm is 60 to 100%. The pest or weed control at 125 µg/mL in test [3] was 60 to 100%.

In the case of `C(#Cc1cccs1)CCNc1ncnc2sccc12` [compound 53], in test [1], the pest or weed control at 125 ppm is 0 to 60%. Also, the pest or weed control at 125 µg/mL in test [2] fell in the range of 60 to 100%.

Turning to `COCc1ccccc1C#CCCNc1ncnc2ccsc12` [compound 49], the pest or weed control at 125 ppm in test [1] fell in the range of 60 to 100%. Also, the pest or weed control at 125 µg/mL in test [2] was 60 to 100%.

Turning to `OCc1ccccc1C#CCCNc1ncnc2sccc12` [compound 44], in test [1], the pest or weed control at 125 ppm lay within 60 to 100%. Further, in test [2], the pest or weed control at 125 µg/mL lay within 60 to 100%.

`FC(F)(F)Oc1ccc(C#CCCNc2ncnc3sccc23)cc1` [compound 34]: in test [1], the pest or weed control at 125 ppm fell in the range of 60 to 100%. The pest or weed control at 125 µg/mL in test [2] fell in the range of 60 to 100%.

On to `FC(F)(F)Oc1cccc(C#CCCNc2ncnc3sccc23)c1` [compound 33], for which the pest or weed control at 125 ppm in test [1] is 60 to 100%. In addition, the pest or weed control at 125 µg/mL in test [2] was 60 to 100%.

On to `FC(F)(F)Oc1ccccc1C#CCCNc1ncnc2sccc12` [compound 32], for which the pest or weed control at 125 ppm in test [1] was 60 to 100%. The pest or weed control at 125 µg/mL in test [2] was 60 to 100%.

As for `COCc1ccccc1C#CCCNc1ncnc2c(C)csc12` [compound 50], in test [1], the pest or weed control at 125 ppm lay in the range of 60 to 100%. For the same compound, the pest or weed control at 125 µg/mL in test [2] lay in the range of 60 to 100%.

Regarding `C(#Cc1ccccn1)CCNc1ncnc2sccc12` [compound 55], the pest or weed control at 125 ppm in test [1] was 60 to 100%. Further, in test [2], the pest or weed control at 125 µg/mL is 60 to 100%.

Regarding `COCc1ccccc1C#CCCNc1ncnc2scc(C)c12` [compound 51], in test [1], the pest or weed control at 125 ppm is 60 to 100%. Also, in test [2], the pest or weed control at 125 µg/mL lay within 60 to 100%.

In the case of `COCc1ccccc1C#CCCNc1ncnc2sccc12` [compound 45], the pest or weed control at 125 ppm in test [1] was 60 to 100%. The pest or weed control at 125 µg/mL in test [2] was 60 to 100%.

For `C(#Cc1ccoc1)CCNc1ncnc2sccc12` [compound 52], the pest or weed control at 125 ppm in test [1] lay within 0 to 60%. The pest or weed control at 125 µg/mL in test [2] was in the range of 60 to 100%.

Turning to `CCOCc1ccccc1C#CCCNc1ncnc2sccc12` [compound 46], the pest or weed control at 125 ppm in test [1] lay in the range of 60 to 100%. In test [2], the pest or weed control at 125 µg/mL was 60 to 100%.

With `CC(CC#Cc1c(Cl)cc(F)cc1Cl)Nc1ncnc2sccc12` (centres unmarked) [compound 261], the pest or weed control at 125 µg/mL in test [2] and in test [3] was 60 to 100% each time.

For the compound `Cc1cc(C)c(C#CCC(C)Nc2ncnc3sccc23)c(C)c1` (centres unmarked) [compound 263], the pest or weed control at 125 µg/mL in test [2] and in test [3] was 60 to 100% throughout.

As to `O=Cc1ccccc1C#CCCNc1ncnc2sccc12` [compound 48], the pest or weed control at 125 ppm in test [1] lay in the range of 60 to 100%. Further, in test [2], the pest or weed control at 125 µg/mL was 60 to 100%.

Take `FCc1ccccc1C#CCCNc1ncnc2sccc12` [compound 47]: in test [1], the pest or weed control at 125 ppm was 60 to 100%. The pest or weed control at 125 µg/mL in test [2] was 60 to 100%.

With `N#Cc1ccc(C#CCCNc2ncnc3sccc23)cc1` [compound 37], the pest or weed control at 125 ppm in test [1] was 60 to 100%. Further, the pest or weed control at 125 µg/mL in test [2] fell in the range of 60 to 100%.

Consider `N#Cc1cccc(C#CCCNc2ncnc3sccc23)c1` [compound 36], for which, in test [1], the pest or weed control at 125 ppm lay within 60 to 100%. Further, in test [2], the pest or weed control at 125 µg/mL lay in the range of 60 to 100%.

Turning to `N#Cc1ccccc1C#CCCNc1ncnc2sccc12` [compound 35], the pest or weed control at 125 ppm in test [1] was 60 to 100%. Also, the pest or weed control at 125 µg/mL in test [2] was 60 to 100%.

On to `C(#Cc1ccsc1)CCNc1ncnc2sccc12` [compound 54], for which the pest or weed control at 125 ppm in test [1] lay in the range of 0 to 60%. Moreover, the pest or weed control at 125 µg/mL in test [2] is 60 to 100%.

Values taken from US8586505B2 (SDS Biotech K. K., priority 2009, dated 2013).
